{
  "source": "patent US20110150974A1",
  "about": "“Agent For Oral Mucosal Administration” (DAIICHI PHARMACEUTICAL CO., LTD., priority 2004, published 2011)",
  "key": {"Human Oral Mucosa": {"test_system": "Human Oral Mucosa", "test": "Influences of pH and additives on drug absorption from human oral mucosa (gargle test)", "assay_type": "in vivo", "settings": "healthy volunteers, FIG. 2", "method": "Healthy volunteers were made to clean their teeth and then gargle with 10 mL of each test solution (Examples 1 to 4) for 2 minutes, the gargles were collected, and then the oral cavity was washed twice with 10 mL of distilled water for 10 seconds. All the mouth wash was added to the test solution after gargling. The amounts of cevimeline hydrochloride in the test solutions before and after the gargling were measured by HPLC, and the difference between the samples was calculated as the amount of absorption to the oral mucosa."}, "[1]": {"test": "Drug distribution to each tissue in rats (oral mucosal vs oral administration)", "assay_type": "in vivo, Rats (male Wistar)", "method": "Rats (9-week old male Wistar rats, body weight: 172 to 205 g) were fixed at the dorsal position under urethane (1.25 g/kg i.p.) anesthesia. The test preparation was administered, and plasma and tissues (minor salivary glands, stomach, small intestine, liver, kidney) were collected 0.5, 1, 2, 4 and 8 hours later for observation of the condition of the application site of the preparation and measurement of the concentration in each tissue. The surface of the minor salivary glands was rinsed with physiological saline, and contents were removed from the stomach and the small intestine, which were rinsed in physiological saline. Each collected tissue was stored at −40° C. before the measurement. The medicament concentration in each tissue was measured by LC/MS/MS."}, "[2]": {"test_system": "xerostomia caused by Sjogren's syndrome", "settings": "oral preparations, cited from earlier work"}},
  "note": "Structures can show the parent of a compound that is named as a salt.",
  "data": [
    {"smiles": "CC1OC2(CS1)CN1CCC2CC1", "note": "(racemic) [cevimeline hydrochloride hydrate, (±)-cis-2-methylspiro(1,3-oxathiolane-5,3′-quinuclidine) monohydrochloride monohydrate]", "values": [
      {"measurement": "amount of absorption to the oral mucosa", "setting": "Human Oral Mucosa; pH 8.0, triethanolamine/hydrochloric acid buffer compared with McIlvaine buffer, gargle 10 mL for 2 minutes", "value": "larger"},
      {"measurement": "amount absorbed from oral mucosa", "setting": "Human Oral Mucosa; pH 8.0 compared with pH 6.0, gargle", "value": "more"},
      {"measurement": "oral mucosal absorbability", "setting": "Human Oral Mucosa; triethanolamine concentration of 1.5% compared with 0.3%, pH 8.0, gargle", "value": "better"},
      {"measurement": "mucosal irritancy at the application site", "setting": "[1]; oral mucosal administration (patch of Example 9)", "value": "no mucosal irritancy was observed"},
      {"measurement": "drug concentration in the stomach", "setting": "[1]; oral mucosal administration (patch of Example 9) compared with oral administration, 0.5-8 hours, FIG. 5", "value": "lower"},
      {"measurement": "drug concentration in the small intestine", "setting": "[1]; oral mucosal administration (patch of Example 9) compared with oral administration, 0.5-8 hours, FIG. 6", "value": "lower"},
      {"measurement": "drug concentration in the kidney", "setting": "[1]; oral mucosal administration (patch of Example 9) compared with oral administration, 0.5-8 hours, FIG. 8", "value": "lower"},
      {"measurement": "drug concentration in the liver", "setting": "[1]; oral mucosal administration (patch of Example 9) compared with oral administration, 0.5-8 hours, FIG. 9", "value": "lower"},
      {"measurement": "plasma concentrations", "setting": "[1]; oral mucosal administration (patch of Example 9) compared with oral administration, changed less in the initial period, FIG. 10", "value": "remained constantly low"},
      {"measurement": "concentrations in the minor salivary glands", "setting": "[1]; oral mucosal administration (patch of Example 9), FIG. 11", "value": "markedly high"},
      {"measurement": "medicament concentrations in the stomach, small intestine, kidney and liver in the initial period after administration", "setting": "[1]; oral mucosal administration (patch of Example 9), up to 2 hours", "value": "apparently low"},
      {"measurement": "saliva secretion promoting effect", "setting": "[2]; JP 61-280497 and 06-024981", "value": "confirmed"},
      {"measurement": "adverse reactions in the digestive system", "setting": "[2]; may cause", "value": "nausea, abdominal pain, and vomiting"}
    ]}
  ]
}
